According to US20050234065A1, “Dipeptidyl peptidase-IV inhibitors” (Pfizer Inc, priority 2004, published 2005):
Read-outs that look alike come from different tables or passages of the source.

Target: T1, DPP-IV (Homo sapiens, UniProt P27487)
T1 construct: purchased Enzyme Systems Products SPE-01
Assay: In vitro assay for dipeptidyl peptidase inhibition
Format: biochemical
Details: hydrochloride salts, Gly-Pro-4-methoxy B naphthylamide substrate, overnight at 37° C.
Method: 150 μL of an enzyme-substrate solution was pipetted into microtiter wells of a polystyrene 96-well plate, and maintained at 4° C. The enzyme-substrate solution comprised 50 μM Gly-Pro-4-methoxy B naphthylamide HCl in 50 mM Tris assay buffer pH 7.3 containing 0.1M sodium chloride, 0.1% (v/v) Triton and 50 μU/mL DPP-IV (Enzyme Systems Products Cat#SPE-01, DPP-IV 5 mU/mL stock). 5 μL/well of compounds of Formula (I) were added, bringing the final compound of Formula (I) concentrations to 3 μM-10 nM per well.
Controls. Enzyme was omitted from four (4) wells, as a reagent blank. 5 μL of 3 mM Diprotin A was added to four wells as a positive quality control, providing a final Diprotin A concentration of 100 μM. To measure total enzyme activity (i.e. a negative control), without the influence of any compounds of Formula (I), 5 μL of distilled water was added to four wells.
The entire assay was incubated overnight (about 14-18 hours) at 37° C.

[1] = read-out: IC50 (concentration of test compound required for 50% inhibition)

T1 sequence (P27487 whole entry, species assumed): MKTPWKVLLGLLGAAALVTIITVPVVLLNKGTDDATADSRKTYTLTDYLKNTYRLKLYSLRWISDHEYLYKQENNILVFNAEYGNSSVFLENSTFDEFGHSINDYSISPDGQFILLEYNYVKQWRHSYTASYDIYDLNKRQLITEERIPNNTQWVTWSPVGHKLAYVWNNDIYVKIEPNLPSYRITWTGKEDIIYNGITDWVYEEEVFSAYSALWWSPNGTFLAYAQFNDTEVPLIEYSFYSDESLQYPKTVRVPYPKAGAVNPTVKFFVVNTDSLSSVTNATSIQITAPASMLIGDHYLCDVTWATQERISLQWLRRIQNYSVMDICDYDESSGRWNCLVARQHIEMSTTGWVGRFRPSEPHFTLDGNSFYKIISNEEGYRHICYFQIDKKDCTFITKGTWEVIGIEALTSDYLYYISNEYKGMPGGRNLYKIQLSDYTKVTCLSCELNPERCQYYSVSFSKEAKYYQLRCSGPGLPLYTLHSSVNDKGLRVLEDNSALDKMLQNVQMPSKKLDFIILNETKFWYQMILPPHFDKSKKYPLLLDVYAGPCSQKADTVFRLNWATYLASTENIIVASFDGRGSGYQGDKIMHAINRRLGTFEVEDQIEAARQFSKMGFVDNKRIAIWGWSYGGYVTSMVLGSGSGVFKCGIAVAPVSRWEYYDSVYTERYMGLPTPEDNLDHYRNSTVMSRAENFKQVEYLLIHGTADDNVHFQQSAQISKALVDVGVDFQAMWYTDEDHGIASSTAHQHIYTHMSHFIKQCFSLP

Row | IC50 [1] [nM] | SMILES | IC50 (IC50 (concentration of test compound required for 50% inhibition)) [nM]
1 | ≤ 100 | Nc1nccnc1C(=O)N[C@H]1CC[C@H]([C@H](N)C(=O)N2CCC(F)(F)C2)CC1 [Example 32, (S)-3-amino-pyrazine-2-carboxylic acid {trans-4-[1-amino-2-(3,3-difluoro-pyrrolidin-1-yl)-2-oxo-ethyl]-cyclohexyl}-amide] | –
2 | – | CN(CC(=O)N[C@H]1CC[C@H]([C@H](N)C(=O)N2CCC(F)(F)C2)CC1)C(=O)Oc1ccccc1 [Example 33, ({trans-4-[(1S)-1-amino-2-(3,3-difluoro-pyrrolidin-1-yl)-2-oxo-ethyl]-cyclohexylcarbamoyl}-methyl)-methyl-carbamic acid phenyl ester] | ≤ 100
3 | 100 to 500 | CN(CC(=O)N[C@H]1CC[C@H]([C@H](N)C(=O)N2CCCC2)CC1)C(=O)OCc1ccccc1 [Example 34, (S)-{[trans-4-(1-amino-2-oxo-2-pyrrolidin-1-yl-ethyl)-cyclohexylcarbamoyl]-methyl}-methyl-carbamic acid benzyl ester] | –
4 | ≤ 100 | N#C[C@@H]1CCCN1C(=O)[C@@H](N)[C@H]1CC[C@H](NC(=O)c2nccnc2N)CC1 [Example 36, 3-amino-pyrazine-2-carboxylic acid {trans-4-[(1S)-1-amino-2-((2S)-2-cyano-pyrrolidin-1-yl)-2-oxo-ethyl]-cyclohexyl}-amide] | –
5 | ≤ 100 | CN(CC(=O)N[C@H]1CC[C@H]([C@H](N)C(=O)N2CCC[C@H]2C#N)CC1)C(=O)OCc1ccccc1 [Example 37, ({trans-4-[(1S)-1-amino-2-((2S)-2-cyano-pyrrolidin-1-yl)-2-oxo-ethyl]-cyclohexylcarbamoyl}-methyl)-methyl-carbamic acid benzyl ester] | –
6 | ≤ 100 | Nc1ncccc1C(=O)N[C@H]1CC[C@H]([C@H](N)C(=O)N2CCCC2)CC1 [Example 38, (S)-2-amino-N-[trans-4-(1-amino-2-oxo-2-pyrrolidin-1-yl-ethyl)-cyclohexyl]-nicotinamide] | –
7 | ≤ 100 | Nc1ncccc1C(=O)N[C@H]1CC[C@H]([C@H](N)C(=O)N2CCSC2)CC1 [Example 39, (S)-2-amino-N-[trans-4-(1-amino-2-oxo-2-thiazolidin-3-yl-ethyl)-cyclohexyl]-nicotinamide] | –
8 | ≤ 100 | N[C@H](C(=O)N1CCCC1)[C@H]1CC[C@H](N2Cc3sccc3C2=O)CC1 [Example 41, 5-[trans-4-((1S)-1-amino-2-oxo-2-pyrrolidin-1-yl-ethyl)-cyclohexyl]-5,6-dihydro-thieno[2,3-c]pyrrol-4-one] | –
9 | ≤ 100 | N[C@H](C(=O)N1CCCC1)[C@H]1CC[C@H](N2Cc3ncccc3C2=O)CC1 [Example 42, 6-[trans-4-((1S)-1-amino-2-oxo-2-pyrrolidin-1-yl-ethyl)-cyclohexyl]-6,7-dihydro-pyrrolo[3,4-b]pyridin-5-one] | –
10 | ≤ 100 | N[C@H](C(=O)N1CCSC1)[C@H]1CC[C@H](N2Cc3ncccc3C2=O)CC1 [Example 43, 6-[trans-4-((1S)-1-amino-2-oxo-2-thiazolidin-3-yl-ethyl)-cyclohexyl]-6,7-dihydro-pyrrolo[3,4-b]pyridin-5-one] | –
11 | ≤ 100 | N#C[C@@H]1CCCN1C(=O)[C@@H](N)[C@H]1CC[C@H](N2Cc3ncccc3C2=O)CC1 [Example 44, 1-{(1S)-amino-[trans-4-(5-oxo-5,7-dihydro-pyrrolo[3,4-b]pyridin-6-yl)-cyclohexyl]-acetyl)-(2S)-pyrrolidine-2-carbonitrile] | –
12 | ≤ 100 | N[C@H](C(=O)N1CCC(F)(F)C1)[C@H]1CC[C@H](N2Cc3ncccc3C2=O)CC1 [Example 45, 6-{trans-4-[(1S)-1-amino-2-(3,3-difluoro-pyrrolidin-1-yl)-2-oxo-ethyl]-cyclohexyl}-6,7-dihydro-pyrrolo[3,4-b]pyridin-5-one] | –
13 | ≤ 100 | N[C@H](C(=O)N1CCCC1)[C@H]1CC[C@H](N2Cc3nccnc3C2=O)CC1 [Example 46, 6-[trans-4-((1S)-1-amino-2-oxo-2-pyrrolidin-1-yl-ethyl)-cyclohexyl]-6,7-dihydro-pyrrolo[3,4-b]pyrazin-5-one] | –
14 | ≤ 100 | N#C[C@@H]1CCCN1C(=O)[C@@H](N)[C@H]1CC[C@H](NC(=O)c2cc3cccn3cn2)CC1 [Example 47, pyrrolo[1,2-c]pyrimidine-3-carboxylic acid {trans-4-[(1S)-1-Amino-2-((2S)-2-cyano-pyrrolidin-1-yl)-2-oxo-ethyl]-cyclohexyl}-amide] | –
15 | ≤ 100 | Cc1nn(C)c(C(=O)N[C@H]2CC[C@H]([C@H](N)C(=O)N3CCCC3)CC2)c1N [Example 48, (S)-4-amino-2,5-dimethyl-2H-pyrazole-3-carboxylic acid [trans-4-(1-amino-2-oxo-2-pyrrolidin-1-yl-ethyl)-cyclohexyl]-amide] | –
16 | 100 to 500 | Nc1nccnc1C(=O)N[C@H]1CC[C@H]([C@H](N)C(=O)N2CC[S+]([O-])C2)CC1 (stereo partly drawn) [Example 49, 3-amino-pyrazine-2-carboxylic acid {trans-4-[(1S)-1-amino-2-oxo-2-(1-oxo-1×4-thiazolidin-3-yl)-ethyl]-cyclohexyl}-amide] | –
17 | ≤ 100 | N[C@H](C(=O)N1CCCC1)[C@H]1CC[C@H](N2Cc3ccccc3S2(=O)=O)CC1 [Example 50, (2S)-2-amino-2-[trans-4-(1,1-dioxo-1,3-dihydro-1λ^6-benzo[d]isothiazol-2-yl)-cyclohexyl]-1-pyrrolidin-1-yl-ethanone] | –
18 | ≤ 100 | N[C@H](C(=O)N1CCSC1)[C@H]1CC[C@H](N2Cc3ccccc3S2(=O)=O)CC1 [Example 51, (2S)-2-amino-2-[trans-4-(1,1-dioxo-1,3-dihydro-1λ^6-benzo[d]isothiazol-2-yl)-cyclohexyl]-1-thiazolidin-3-yl-ethanone] | –
19 | ≤ 100 | N[C@H](C(=O)N1CC[C@@H](F)C1)[C@H]1CC[C@H](NC(=O)c2cccc(O)n2)CC1 [Example 52, 6-hydroxy-pyridine-2-carboxylic acid {trans-4-[(1S)-1-amino-2-((3R)-3-fluoro-pyrrolidin-1-yl)-2-oxo-ethyl]-cyclohexyl}-amide] | –
20 | ≤ 100 | N[C@H](C(=O)N1CC[C@@H](F)C1)[C@H]1CC[C@H](NC(=O)c2cncc(O)n2)CC1 [Example 53, 6-Hydroxy-pyrazine-2-carboxylic acid {trans-4-[(1S)-1-Amino-2-((3R)-3-fluoro-pyrrolidin-1-yl)-2-oxo-ethyl]-cyclohexyl}-amide] | –
21 | ≤ 100 | Cn1ccc2cc(C(=O)N[C@H]3CC[C@H]([C@H](N)C(=O)N4CCC[C@H]4C#N)CC3)ncc21 [Example 54, N-(trans-4-{(1S)-1-Amino-2-[(2S)-2-cyanopyrrolidin-1-yl]-2-oxoethyl}cyclohexyl)-1-methyl-1H-pyrrolo[2,3-c]pyridine-5-carboxamide] | –
22 | ≤ 100 | CC1(C)COc2cnc(C(=O)N[C@H]3CC[C@H]([C@H](N)C(=O)N4CCC[C@H]4C#N)CC3)cc21 [Example 55, N-(trans-4-{(1S)-1-amino-2-[(2S)-2-cyanopyrrolidin-1-yl]-2-oxoethyl}cyclohexyl)-3,3-dimethyl-2,3-dihydrofuro[2,3-c]pyridine-5-carboxamide] | –
23 | ≤ 100 | N#C[C@@H]1CCCN1C(=O)[C@@H](N)[C@H]1CC[C@H](NC(=O)c2cn3cccc3cn2)CC1 [Example 56, N-(trans-4-{(S)-1-amino-2-[(2S)-2-cyanopyrrolidin-1-yl]-2-oxoethyl}cyclohexyl)pyrrolo[1,2-a]pyrazine-3-carboxamide] | –
24 | ≤ 100 | N#C[C@@H]1CCCN1C(=O)[C@@H](N)[C@H]1CC[C@H](NC(=O)c2cc3sccc3cn2)CC1 [Example 57, N-(trans-4-{(1S)-1-amino-2-[(2S)-2-cyanopyrrolidin-1-yl]-2-oxoethyl}cyclohexyl)thieno[3,2-c]pyridine-6-carboxamide] | –
25 | ≤ 100 | N#C[C@@H]1CCCN1C(=O)[C@@H](N)[C@H]1CC[C@H](NC(=O)c2cc3ccoc3cn2)CC1 [Example 58, N-(trans-4-{(1S)-1-amino-2-[(2S)-2-cyanopyrrolidin-1-yl]-2-oxoethyl}cyclohexyl) furo[2,3-c]pyridine-5-carboxamide] | –
26 | ≤ 100 | Cc1cc(C)n2cnc(C(=O)N[C@H]3CC[C@H]([C@H](N)C(=O)N4CCC[C@H]4C#N)CC3)cc12 [Example 59, N-(trans-4-{(1S)-1-amino-2-[(2S)-2-cyanopyrrolidin-1-yl]-2-oxoethyl}cyclohexyl)-5,7-dimethylpyrrolo[1,2-c]pyrimidine-3-carboxamide] | –
27 | ≤ 100 | N#C[C@@H]1CCCN1C(=O)[C@@H](N)[C@H]1CC[C@H](NC(=O)c2cc3ccsc3cn2)CC1 [Example 60, N-(trans-4-{(1S)-1-amino-2-[(2S)-2-cyanopyrrolidin-1-yl]-2-oxoethyl}cyclohexyl)thieno[2,3-c]pyridine-5-carboxamide] | –
28 | ≤ 100 | N#C[C@@H]1CCCN1C(=O)[C@@H](N)[C@H]1CC[C@H](NC(=O)c2cc3occc3cn2)CC1 [Example 61, N-(trans-4-{(1S)-1-amino-2-[(2S)-2-cyanopyrrolidin-1-yl]-2-oxoethyl}cyclohexyl)furo[3,2-c]pyridine-6-carboxamide] | –
29 | ≤ 100 | C#Cc1coc2cnc(C(=O)N[C@H]3CC[C@H]([C@H](N)C(=O)N4CCC[C@H]4C#N)CC3)cc12 [Example 62, N-(trans-4-{(S)-1-amino-2-[(2S)-2-cyanopyrrolidin-1-yl]-2-oxoethyl}cyclohexyl)-3-ethynylfuro[2,3-c]pyridine-5-carboxamide] | –
